Converted amounts (≈) assume the structure as drawn. The source made the active and inactive calls. The calls are words filed in the database; no cut-off is given here.
Key:
[1] = tested on: A498; assay: Cytotoxicity against human A498 cells; type: functional, cell-based
[2] = tested on: ACHN; assay: Cytotoxicity against human ACHN cells; type: functional, cell-based
[3] = molecular target: Acetylcholinesterase (Homo sapiens) (UniProt P22303); assay: Inhibition of AChE (unknown origin) at 100 ug/ml for 15 mins by spectrophotometry
Chain of Acetylcholinesterase (Homo sapiens) (P22303 whole entry): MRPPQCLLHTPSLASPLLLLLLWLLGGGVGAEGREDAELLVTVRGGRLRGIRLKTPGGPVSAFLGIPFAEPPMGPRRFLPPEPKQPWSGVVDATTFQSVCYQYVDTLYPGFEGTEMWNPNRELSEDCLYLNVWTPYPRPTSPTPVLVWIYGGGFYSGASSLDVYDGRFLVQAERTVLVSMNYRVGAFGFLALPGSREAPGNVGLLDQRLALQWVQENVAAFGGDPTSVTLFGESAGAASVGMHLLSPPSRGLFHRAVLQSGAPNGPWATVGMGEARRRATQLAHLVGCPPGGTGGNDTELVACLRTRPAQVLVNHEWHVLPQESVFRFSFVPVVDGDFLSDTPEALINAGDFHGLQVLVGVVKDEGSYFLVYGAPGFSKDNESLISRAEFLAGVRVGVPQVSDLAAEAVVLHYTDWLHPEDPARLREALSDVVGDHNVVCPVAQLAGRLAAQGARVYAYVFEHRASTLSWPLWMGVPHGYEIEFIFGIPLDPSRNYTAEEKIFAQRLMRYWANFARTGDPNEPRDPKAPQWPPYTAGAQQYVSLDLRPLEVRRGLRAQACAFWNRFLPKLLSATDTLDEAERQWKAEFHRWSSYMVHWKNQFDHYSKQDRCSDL

[4] = tested on: Bacillus subtilis; assay: Antibacterial activity against Bacillus subtilis ATCC 6633 after 24 hrs; type: functional; details: ATCC 6633, 24 h
[5] = tested on: Staphylococcus epidermidis; assay: Antibacterial activity against Staphylococcus epidermidis ATCC 12228 after 24 hrs; type: functional; details: ATCC 12228, 24 h

Structure (SMILES) | Activity [1] | Activity [2] | inhibition [3] | MIC [4] [µg/mL] | MIC [5] [µg/mL]
CC(C)CCCCCCC(=O)c1nc[nH]c1N | inactive | inactive | Active | 64 (≈ 270 µM) | 64 (≈ 270 µM)
CCC(C)CCCCCCC(=O)c1nc[nH]c1N (centres undefined) | inactive | inactive | Active | 64 (≈ 255 µM) | –
